Measurements reported in publication PMC5924617 (European journal of medicinal chemistry, 2018).

Experiments:
[1] = system: Groβ; assay: poly; type: cell-based, human; conditions: for Inhibitory rate (%) of Groβ expression: 10 μM compound, poly(I:C)-induced, hSAECs; for inhibition at 10 µM: Homo sapiens, read-out: Inhibitory rate (%) of Groβ expression
[2] = system: ISG56; assay: poly; type: cell-based, human; conditions: for Inhibitory rate (%) of ISG56 expression: 10 μM compound, poly(I:C)-induced, hSAECs; for inhibition at 10 µM: Homo sapiens, read-out: Inhibitory rate (%) of ISG56 expression
[3] = system: innate immune genes including ISG54, ISG56, IL-8 and Groβ; assay: poly; type: cell-based, human; conditions: for IC50: Homo sapiens, read-out: IC50 against all innate immune genes (range); for Inhibitory rates on immune genes' expression (all genes, text): 10 μM compound, ISG54, ISG56, IL-8, Groβ in hSAECs
[4] = system: IL-8; assay: poly; type: cell-based, human; conditions: for inhibition at 10 µM: Homo sapiens, read-out: Inhibitory rate (%) of IL-8 expression
[5] = system: ISG54; assay: poly; type: cell-based, human
[6] = In vivo pharmacokinetic profile in rats; conditions: PO 20 mg/kg
[7] = system: various receptors and enzymes including kinases such as IKK; assay: Eurofins Cerep panel assays, off-target effects; conditions: tested concentration 10 μM; Table S1
[8] = Daily administration over one month in mice, toxicity; conditions: compound-treated mice
[9] = 10 μM compound, poly(I:C)-induced, hSAECs

For “5-Chloro-2-methoxy-N-(2-oxo-1,2,3,4-tetrahydroquinolin-6-yl)benzenesulfonamide [Compound 26]”, the “Inhibitory rate (%) of Groβ expression” value [1] was 56% and the “Inhibitory rate (%) of ISG56 expression” value [2] was 56%.
With `Cc1sc2c(c1C)C(c1ccc(Cl)cc1)=N[C@@H](CC(=O)OC(C)(C)C)c1nnc(C)n1-2` [(+)-JQ1, reference compound] the IC50 [3] was 1380 to 3850 nM.
`CCCc1cc(C(=O)Nc2ccc(S(=O)(=O)N3CCC[C@H]3C(=O)OC)cc2)no1` [Compound 11, Methyl ((4-(5-propylisoxazole-3-carboxamido)phenyl)sulfonyl)-L-prolinate] gave an inhibition at 10 µM [1] of -57%, an inhibition at 10 µM [4] of -61% and an inhibition at 10 µM ([5]; Homo sapiens, read-out: Inhibitory rate (%) of ISG54 expression) of -62%. The inhibition at 10 µM [2] was -73%.
With `COC(=O)[C@@H]1CCCN1S(=O)(=O)c1ccc(N(C(=O)c2ccc(F)cc2)C(=O)c2ccc(F)cc2)cc1` [Compound 13, Methyl ((4-(4-fluoro-N-(4-fluorobenzoyl)benzamido)phenyl)sulfonyl)-L-prolinate] the “Inhibitory rates on immune genes' expression (all genes, text)” value (“Inhibitory rates” for short) [3] was “around 90%”.
For `COC(=O)[C@@H]1CCCN1S(=O)(=O)c1ccc(NC(=O)c2ccc(C(F)(F)F)cc2)cc1` [Compound 14, Methyl ((4-(4-(trifluoromethyl)benzamido)phenyl)sulfonyl)-L-prolinate], the “Inhibitory rates” value [3] was “completely lost its activity”.
Work on `COC(=O)[C@@H]1CCCN1S(=O)(=O)c1ccc(NCc2ccc(O)cc2)cc1` [Compound 15, Methyl ((4-((4-hydroxybenzyl)amino)phenyl)sulfonyl)-L-prolinate] yielded an inhibition at 10 µM [1] of -12% and an inhibition at 10 µM [2] of -17%.
Compound `O=C1CCc2cc(NS(=O)(=O)c3ccc([N+](=O)[O-])cc3)ccc2N1` [Compound 27, 4-Nitro-N-(2-oxo-1,2,3,4-tetrahydroquinolin-6-yl)benzenesulfonamide] has an inhibition at 10 µM [4] of -32%.
For `Cc1cc(/N=N/c2ccc3c(c2)CCC(=O)N3)c(N)cc1O` [Compound 28, (E)-6-((2-Amino-4-hydroxy-5-methylphenyl)diazenyl)-3,4-dihydroquinolin-2(1H)-one], the Oral bioavailability [6] was “not favorable” and the IC50 [3] was 490 to 860 nM.
For `Cc1cc(/N=N/c2ccc(N3CCS(=O)(=O)CC3)cc2)c(N)cc1O` [Compound 33, (E)-4-(4-((2-Amino-4-hydroxy-5-methylphenyl)diazenyl)phenyl)thiomorpholine 1,1-dioxide], the “Inhibitory rates” value [3] was “inactive”.
For `Cc1cc(/N=N/c2ccc(S(=O)(=O)NC3CCCC3)cc2)c(N)cc1O` [Compound 35, (E)-4-((2-Amino-4-hydroxy-5-methylphenyl)diazenyl)-N-cyclopentylbenzenesulfonamide], the Off-target effects [7] was “No significant off-target effects”, the “Effects on hepatic, renal or pulmonary tissues, histological examination” value [8] was “No discernable effects” and the Oral bioavailability [6] was “not favorable”. The IC50 [3] was 490 to 860 nM.
For “Methyl ((4-(5-(furan-3-yl)isoxazole-3-carboxamido)phenyl)sulfonyl)-L-prolinate [Compound 12]”, the “Inhibitory rate (%) of Groβ expression” value [1] was −98%, the “Inhibitory rate (%) of IL-8 expression” value [4, 9] was −86% and the “Inhibitory rate (%) of ISG54 expression” value [5, 9] was −114%. For the same compound, the “Inhibitory rate (%) of ISG56 expression” value [2] was −93%.
